Measured values: publication PMC7497086, “Fluorophore‐Labeled Cyclic Nucleotides as Potent Agonists of Cyclic Nucleotide‐Regulated Ion Channels” (Chembiochem, 2020)
Where “and” joins values, the source holds several entries; their conditions need not be identical. Equal entries are not always repeated. Entries after “also recorded” stand apart in the source; their conditions may differ.

Columns and labels:
Assay type in all cases: biochemical
[1] = biological target: T1, Heterotetrameric CNGA2:A4:B1b channels (Rattus norvegicus, UniProt A0A8I5ZN27+Q00195+Q64359); assay: Patch-clamp activation of heterotetrameric olfactory CNGA2:A4:B1b channels, inside-out patches of Xenopus oocytes; details: for H a (Hill coefficient of activation) / EC50: inside-out patches, +10 mV; for EC50: concentration of half maximum activation
T1 construct: expressed in transfected cells; host or cells: Xenopus laevis oocytes injected with cRNA (CNGA2:CNGA4:CNGB1b at 2:1:1)
T1 sequence (Q64359 whole entry, one chain of several): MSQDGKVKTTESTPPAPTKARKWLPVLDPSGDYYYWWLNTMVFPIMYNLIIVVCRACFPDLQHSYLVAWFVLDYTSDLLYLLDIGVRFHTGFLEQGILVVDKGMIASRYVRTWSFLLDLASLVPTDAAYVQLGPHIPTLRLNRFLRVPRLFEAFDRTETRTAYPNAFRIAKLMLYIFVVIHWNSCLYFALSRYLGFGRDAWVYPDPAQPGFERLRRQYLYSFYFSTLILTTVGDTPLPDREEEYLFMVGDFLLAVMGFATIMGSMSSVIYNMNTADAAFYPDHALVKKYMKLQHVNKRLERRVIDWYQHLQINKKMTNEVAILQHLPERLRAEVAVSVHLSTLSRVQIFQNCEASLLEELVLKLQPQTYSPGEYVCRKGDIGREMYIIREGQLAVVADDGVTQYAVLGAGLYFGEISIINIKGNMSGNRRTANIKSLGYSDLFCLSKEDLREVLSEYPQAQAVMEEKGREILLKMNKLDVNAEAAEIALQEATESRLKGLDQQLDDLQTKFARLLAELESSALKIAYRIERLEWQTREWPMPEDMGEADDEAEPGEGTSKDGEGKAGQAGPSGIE
T1 sequence (A0A8I5ZN27 1-858 isoform A0A8I5ZN27-2, one chain of several): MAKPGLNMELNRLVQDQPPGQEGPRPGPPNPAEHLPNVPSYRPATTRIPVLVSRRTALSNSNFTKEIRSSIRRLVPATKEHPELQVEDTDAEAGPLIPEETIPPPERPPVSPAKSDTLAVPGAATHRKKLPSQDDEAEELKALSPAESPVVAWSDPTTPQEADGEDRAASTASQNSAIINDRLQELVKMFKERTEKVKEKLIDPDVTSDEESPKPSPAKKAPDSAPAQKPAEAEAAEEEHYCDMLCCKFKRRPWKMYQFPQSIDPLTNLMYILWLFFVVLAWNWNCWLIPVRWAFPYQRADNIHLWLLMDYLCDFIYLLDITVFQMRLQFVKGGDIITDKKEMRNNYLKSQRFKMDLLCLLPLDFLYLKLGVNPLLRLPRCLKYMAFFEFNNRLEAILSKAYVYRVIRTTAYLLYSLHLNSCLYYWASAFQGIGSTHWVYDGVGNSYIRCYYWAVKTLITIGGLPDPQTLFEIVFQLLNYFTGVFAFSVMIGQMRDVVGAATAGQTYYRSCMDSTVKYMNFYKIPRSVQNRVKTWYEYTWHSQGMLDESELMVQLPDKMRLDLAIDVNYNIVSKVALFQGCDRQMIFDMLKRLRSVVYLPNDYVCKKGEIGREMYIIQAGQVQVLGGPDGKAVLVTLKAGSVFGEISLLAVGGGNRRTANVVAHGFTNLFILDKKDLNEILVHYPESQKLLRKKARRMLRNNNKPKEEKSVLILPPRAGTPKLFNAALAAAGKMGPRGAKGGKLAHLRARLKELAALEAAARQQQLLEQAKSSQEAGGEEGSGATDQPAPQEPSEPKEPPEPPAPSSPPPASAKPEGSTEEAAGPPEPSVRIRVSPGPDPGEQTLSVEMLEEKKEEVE
Procedure: First, the effect of the compounds on olfactory CNG channels with natural composition was tested. […] To determine the potency of the ligands, full concentration‐activation relationships were generated. These relationships were fitted with Equation 1 (Experimental Section), yielding the concentration of half maximum activation (EC 50) and the Hill coefficient (H a).
(§1) Molecular biology and heterologous expression of CNG and HCN channels: The subunits CNGA2 (accession No. AF126808), CNGA4 (accession no. U12623) and CNGB1b (accession no. AF068572) of rat olfactory channels as well as mouse HCN2 channels (NM008226) were subcloned in front of the T7 promoter of pGEMHEnew. The corresponding cRNAs were produced with the mMESSAGE mMACHINE T7 Kit (Ambion, Austin, TX, USA).
(§2) Oocytes at stages IV and V were injected with 50–130 ng cRNA encoding either CNGA2, CNGA2 : CNGA4 : CNGB1b (2 : 1 : 1 ratio) or HCN2 channels either manually or mediated by an injection robot (RoboInject®). The injected oocytes were incubated at 18 °C for up to 6 days in Barth's medium containing (in mM) 84 NaCl, 1 KCl, 2.4 NaHCO3, 0.82 MgSO4, 0.41 CaCl2, 0.33 Ca(NO3)2, 7.5 TRIS, cefuroxime (4.0 μg/mL) and penicillin/streptomycin (100 μg/mL), pH 7.4.
(§3) Electrophysiology: Macroscopic currents were recorded in inside‐out patches of the oocytes expressing hundreds to several thousand of the desired channels by using the patch‐clamp technique. The patch pipettes were pulled from quartz tubing (P‐2000, Sutter Instrument, Novato, USA) with an outer and inner diameter of 1.0 and 0.7 mm (VITROCOM, New Jersey, USA). The corresponding pipette resistance was 0.9–2.3 MΩ. The bath and pipette solution contained (in mM): 150 KCl, 1 EGTA, 20 HEPES (pH 7.4) for CNG channel measurements. For HCN channel measurements the bath solution contained (in mM): 100 KCl, 10 EGTA, 10 HEPES (pH 7.2) and the pipette (in mM) 120 KCl, 10 HEPES, 1 CaCl2 (pH 7.2). All experiments were performed at room temperature by using an Axopatch 200B amplifier (Axon Instruments, Foster City, CA, USA). Electrophysiology was controlled by the Patchmaster‐software (HEKA Elektronik Dr. Schulze GmbH, Lambrecht, Germany). The sampling rate was 5 kHz and the filter implemented in the amplifier (4‐pole Bessel) was set to 2 kHz. Measurements in HCN2 channels were started 3.5 minutes after patch excision, to minimize run down phenomena.18 The solutions with the different ligand concentrations to be studied were applied by a multi‐barrel device to the patches with a flow rate of 0.8 to 1.2 mL/min. The concentration of the fluorescent ligands was verified by UV/Vis spectroscopy.
(§4) where I is the actual current amplitude and I max the maximum current amplitude at saturating concentration of each cyclic nucleotide. EC 50 is the ligand concentration generating half maximum current and H a the respective Hill coefficient.

[2] = biological target: T2, homotetrameric HCN2 channels (Mus musculus, UniProt O88703); assay: Patch-clamp activation of homotetrameric HCN2 channels, inside-out patches of Xenopus oocytes; details: 5 μM ligand; pulse from -30 mV to -130 mV; compared with saturating cAMP (20 μM)
T2 construct: expressed in transfected cells; host or cells: Xenopus laevis oocytes injected with HCN2 cRNA
T2 sequence (O88703 1-863): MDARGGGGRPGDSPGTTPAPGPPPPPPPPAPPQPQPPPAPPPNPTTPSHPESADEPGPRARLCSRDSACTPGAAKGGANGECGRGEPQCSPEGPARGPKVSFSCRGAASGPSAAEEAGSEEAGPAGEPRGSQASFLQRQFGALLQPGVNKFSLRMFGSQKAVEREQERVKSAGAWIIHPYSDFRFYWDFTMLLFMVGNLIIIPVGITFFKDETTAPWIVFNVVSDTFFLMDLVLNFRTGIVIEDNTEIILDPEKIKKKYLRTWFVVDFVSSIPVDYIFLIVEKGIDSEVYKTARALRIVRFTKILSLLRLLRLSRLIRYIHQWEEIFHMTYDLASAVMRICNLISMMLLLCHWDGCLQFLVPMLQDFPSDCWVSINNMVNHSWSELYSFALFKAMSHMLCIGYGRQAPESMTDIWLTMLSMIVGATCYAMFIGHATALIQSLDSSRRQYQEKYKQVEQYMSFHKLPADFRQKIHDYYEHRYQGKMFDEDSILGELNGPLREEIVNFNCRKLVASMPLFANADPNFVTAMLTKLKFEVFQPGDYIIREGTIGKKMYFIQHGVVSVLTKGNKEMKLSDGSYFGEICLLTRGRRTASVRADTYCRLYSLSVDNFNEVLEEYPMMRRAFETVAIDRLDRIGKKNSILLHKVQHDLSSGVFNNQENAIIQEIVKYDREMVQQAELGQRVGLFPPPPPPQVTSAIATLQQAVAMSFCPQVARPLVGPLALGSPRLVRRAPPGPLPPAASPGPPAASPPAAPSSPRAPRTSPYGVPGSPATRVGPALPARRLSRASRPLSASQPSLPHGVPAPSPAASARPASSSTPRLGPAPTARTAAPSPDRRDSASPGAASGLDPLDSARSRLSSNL
Procedure: On these channels the potency of cGMP and its derivatives is negligibly small. These measurements were performed in inside‐out patches as well. The channels were activated from a holding potential of −30 mV by a hyperpolarizing voltage pulse to −130 mV, followed by a short pulse to −100 mV, as described in the inset of Figure 3A. All recordings were carried out in the absence of a ligand at first and then with a solution containing 5 μM of the cyclic nucleotide to be tested.
as §1
The oocytes were incubated for 105 min in Ca^2+‐free Barth's solution containing collagenase A (3 mg/mL; Roche, Grenzach‐Wyhlen, Germany) and (in mM) 82.5 NaCl, 2 KCl, 1 MgCl2, 5 HEPES, pH 7.4. […]
Electrophysiology: Macroscopic currents were recorded in inside‐out patches of the oocytes expressing hundreds to several thousand of the desired channels by using the patch‐clamp technique. […]

[3] = biological target: T3, Homotetrameric CNGA2 channels (Rattus norvegicus, UniProt Q00195); assay: Patch-clamp activation of homotetrameric CNGA2 channels, inside-out patches of Xenopus oocytes; details: for H a (Hill coefficient of activation) / EC50: inside-out patches; for EC50: concentration of half maximum activation
T3 construct: expressed in transfected cells; host or cells: Xenopus laevis oocytes injected with CNGA2 cRNA
T3 sequence (Q00195 1-664): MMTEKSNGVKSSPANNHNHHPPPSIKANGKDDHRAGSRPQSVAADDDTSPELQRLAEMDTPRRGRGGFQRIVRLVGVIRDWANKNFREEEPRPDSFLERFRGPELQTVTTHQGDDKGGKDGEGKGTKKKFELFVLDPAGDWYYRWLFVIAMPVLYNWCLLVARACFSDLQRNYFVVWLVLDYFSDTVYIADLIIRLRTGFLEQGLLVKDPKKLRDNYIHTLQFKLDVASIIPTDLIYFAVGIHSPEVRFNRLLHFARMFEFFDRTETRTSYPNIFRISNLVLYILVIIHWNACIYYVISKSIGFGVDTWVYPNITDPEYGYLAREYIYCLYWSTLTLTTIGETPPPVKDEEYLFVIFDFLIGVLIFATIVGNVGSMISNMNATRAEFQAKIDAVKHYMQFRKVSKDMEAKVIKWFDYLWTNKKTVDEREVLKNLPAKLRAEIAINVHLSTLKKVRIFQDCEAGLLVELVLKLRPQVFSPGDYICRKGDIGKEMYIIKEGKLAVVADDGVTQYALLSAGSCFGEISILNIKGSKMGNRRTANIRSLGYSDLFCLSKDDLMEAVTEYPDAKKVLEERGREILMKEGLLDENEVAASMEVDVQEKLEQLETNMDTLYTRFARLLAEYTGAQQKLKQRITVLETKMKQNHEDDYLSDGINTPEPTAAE
Description: Moreover, we studied the effect of the nucleotide derivatives on homotetrameric CNGA2 channels.
as §1, §2, §3, §4

| SMILES | effect at elevated concentrations ([1]; elevated concentrations) | H a (Hill coefficient of activation) [1] | EC50 [1] | effect on HCN2 current (activation speed and current amplitude) [2] | H a (Hill coefficient of activation) [3] | EC50 [3] | efficacy of channel activation ([3]; relative to maximum activation) | EC 50 (in words) [3] | agonist efficacy ([1]; current maxima normalized to saturating cAMP (500 μM)) |
| --- | --- | --- | --- | --- | --- | --- | --- | --- | --- |
| NCCCCCc1ccc(Sc2nc3c(N)ncnc3n2[C@@H]2O[C@@H]3COP(=O)(O)O[C@H]3[C@H]2O)cc1 [Compound 6] | inhibitory effect | 2.25±0.08 | 750 ± 10 nM | accelerated the current and enhanced the amplitude | 2.51±0.05 | 4720 ± 40 nM | – | – | – |
| CC1(C)C2=C3C=C4C5=[N+](CCC4OC3CCN2c2ccc(CC(=O)NCCCCCc3ccc(Sc4nc6c(N)ncnc6n4[C@@H]4O[C@@H]6COP(=O)(O)O[C@H]6[C@H]4O)cc3)cc21)c1ccc(S(=O)(=O)[O-])cc1C5(C)C (stereo partly shown) [Compound 7] | – | 2.26±0.29 | 900 ± 40 nM | – | 1.39 and 1.39±0.07 | 10000 ± 500 nM | did not generate maximum activation at 100 μM | – | – |
| NCCCCCc1ccc(Sc2nc3c(=O)[nH]c(N)nc3n2[C@@H]2O[C@@H]3COP(=O)(O)O[C@H]3[C@H]2O)cc1 [Compound 9] | – | 1.55±0.08 | 370 ± 10 nM | – | 2.52±0.08 | 250 ± 10 nM | – | nanomolar range | – |
| NCCCCCc1ccc(-c2nc3c(N)ncnc3n2[C@@H]2O[C@@H]3COP(=O)(O)O[C@H]3[C@H]2O)cc1 [Compound 12] | – | 2.23±0.05 | 10700 ± 100 nM | no effect; also recorded: almost ineffective | 2.14±0.10 | 16300 ± 500 nM | – | – | only a partial agonist |
| NCCCCCc1ccc(-c2nc3c(=O)[nH]c(N)nc3n2[C@@H]2O[C@@H]3COP(=O)(O)O[C@H]3[C@H]2O)cc1 [Compound 13] | – | 1.74±0.11 | 7020 ± 260 nM | – | 2.28±0.28 | 2410 ± 150 nM | – | – | – |
| Nc1ncnc2c1ncn2[C@@H]1O[C@@H]2COP(=O)(O)O[C@H]2[C@H]1O [cAMP, reference compound] | – | 2.08±0.12 | – | – | – | – | – | – | – |
| Nc1nc2c(ncn2[C@@H]2O[C@@H]3COP(=O)(O)O[C@H]3[C@H]2O)c(=O)[nH]1 [cGMP, reference compound] | – | 2.11±0.23 | 1360 ± 70 nM | – | 2.48±0.05 | 1770 ± 20 nM | – | – | – |
